US9340577B2, “HLA binding motifs and peptides and their uses” (priority 1992, dated 2016)
No end group written: not given here.

Tests used:
Assay in all cases: biochemical
Type in all cases: binding
A*6801 = A*6801 (Homo sapiens, UniProt P04439, A269V/D185E/E176V/E277Q/E87N/F33Y/G231S/I121M/I166T/I218V/L180W/L300P/L318F/N151K/P208A/P217A/Q86R/R169H/T345S)
HLA-A11 (A*1101) = HLA-A11 (A*1101) (Homo sapiens, UniProt P04439, A114D/D185E/E176A/F33Y/L180Q/S129P/T187R)
A31 (A*3101) = A31 (A*3101) (Homo sapiens, UniProt P04439, A270S/D185E/E176V/E277Q/F33T/G231S/G80R/H175R/I121M/I218V/I322F/K168Q/L300P/L318F/M331R/P217A/Q94H/R138Q/T323A/T345S/T97I/V358M)
A*3301 = A*3301 (Homo sapiens, UniProt P04439, A270S/D185E/E176V/E277Q/E87N/F33T/G231S/H175R/I121M/I218V/I322F/K168Q/K210R/L300P/L318F/M331R/P217A/Q86R/Q94H/R138Q/T323A/T345S/T97I/V358M/Y195H)
HLA-A*0201 (HLA-A2.1) = HLA-A*0201 (HLA-A2.1) (Homo sapiens, UniProt P04439, D140Y/D185E/D98H/E176V/E277Q/G131W/G231S/I119V/I121R/I166T/I218V/L300P/L318F/N151K/N90K/P208A/P217A/Q86G/Q94H/R138H/R169H/T345S)

| Molecule | IC50 (A*6801) [nM] | IC50 (HLA-A11 (A*1101)) [nM] | IC50 (A31 (A*3101)) [nM] | IC50 (A*3301) [nM] | also measured |
| --- | --- | --- | --- | --- | --- |
| CC(C)C[C@H](NC(=O)[C@H](CCCNC(=N)N)NC(=O)[C@H](CCC(=O)O)NC(=O)[C@H](CCC(N)=O)NC(=O)[C@H](CCCNC(=N)N)NC(=O)[C@H](C)NC(=O)[C@@H](N)CCCNC(=N)N)C(=O)N[C@@H](CCC(N)=O)C(=O)N[C@@H](CCCNC(=N)N)C(=O)O [Peptide 78.0311] | > 20000 | > 20000 | 350 | > 20000 |  |
| CC(C)C[C@H](NC(=O)[C@H](CCCNC(=N)N)NC(=O)[C@H](Cc1ccccc1)NC(=O)CNC(=O)[C@@H](N)Cc1ccc(O)cc1)C(=O)NCC(=O)N[C@@H](Cc1ccccc1)C(=O)N[C@@H](CC(C)C)C(=O)N[C@@H](Cc1c[nH]cn1)C(=O)O [Peptide 1556.26] |  | 19 | 3250 | 9910 |  |
| AACWRSRRK [Peptide 88.0260] |  |  |  | > 20000 |  |
| AIRKAILGHR [Peptide 9017.0223] | 7730 | 12600 | 25 | 1520 |  |
| ALQGLAQSR [Peptide 88.0398] | 11300 | 2760 | 311 | > 20000 |  |
| AQVLHLLKR [Peptide 88.0364] | 19500 |  | 98 | 3780 |  |
| AQVLHVLKR [Peptide 88.0335] | 6530 | 79 |  | 64 |  |
| ATCALYWYR [Peptide 88.0371] | 120 | 18 | 19 | 15 |  |
| AVDLSFFLK [Peptide 73.0184] |  |  |  | > 20000 |  |
| AVDLYHFLK [Peptide 940-06, reference compound] |  |  |  |  | active receptor (HLA-A11 (A*1101)): 10% |
| AVHLCTETSK [Peptide 88.0230] | 10500 | 87 |  | > 20000 |  |
| DFISFLSYFK [Peptide 88.0188] | 1.5 | 30 | 2630 | 5.7 |  |
| EFVSFLSALK [Peptide 1587.36] | 22 |  |  | 17 |  |
| EQMLIQPPK [Peptide 88.0378] | 732 | 79 | > 20000 | 831 |  |
| ESKKKVESK [Peptide 9017.0082] | 250 | > 20000 | > 20000 | > 20000 |  |
| FAFADLTVVY [Peptide 78.0115] |  |  | > 20000 | > 20000 |  |
| FVSFLSALK [Peptide 1587.37] | 13 | 8.8 | 4370 |  |  |
| FVVYRDSIPK [Peptide 88.0026] | 10 |  |  |  |  |
| GLVFGILIKR [Peptide 9012.0244] |  | 489 | 2110 | 2640 |  |
| GTGISYGRK [Peptide 66.0062] |  |  | > 20000 | > 20000 |  |
| HLVPWDQLFR [Peptide 9012.0236] | 21 |  | 308 |  |  |
| ILWKDIFHR [Peptide 9012.0201] | 235 |  | 6.4 | 4.8 |  |
| ITIEKLLEK [Peptide 1587.31] | 16 | 14 |  | 11000 |  |

| Molecule | IC50 (A*6801) [nM] | IC50 (HLA-A11 (A*1101)) [nM] | IC50 (A31 (A*3101)) [nM] | IC50 (A*3301) [nM] | also measured |
| --- | --- | --- | --- | --- | --- |
| IVIKRRQQK [Peptide 9012.0206] | 3300 |  | 712 | 9110 |  |
| IVKETELRK [Peptide 9012.0209] | 1730 |  | > 20000 | > 20000 |  |
| IVYRDNNPY [Peptide 78.0292] |  | 18 | > 20000 | > 20000 |  |
| KAGPGGYPRK [Peptide 73.0334] |  |  |  | > 20000 |  |
| KISEYRHYNK [Peptide 88.0110] |  |  |  | > 20000 |  |
| KQGAMLAVFK [Peptide 88.0142] | 235 |  | 519 | > 20000 |  |
| KQSRAAKRR [Peptide 88.0325] | 1120 | 18800 |  | 512 |  |
| KTLGISYGRK [Peptide 66.0073] |  |  |  | > 20000 |  |
| KTLGISYGRKK [Peptide 66.0090] |  |  |  | > 20000 |  |
| KVGPGGYPRRK [Peptide 73.0336] |  |  |  | > 20000 |  |
| KVGSLQYLK [Peptide 66.0057] |  |  |  | > 20000 |  |
| LALTALIKPK [Peptide 9017.0227] | 3480 | 34 |  | > 20000 |  |
| LQHASTSTPK [Peptide 88.0224] |  | 20 | 5820 | > 20000 |  |
| LVYRDDFPK [Peptide 88.0280] | 110 |  |  |  |  |
| MSFLTALKR [Peptide 1587.11] | 2.4 | 26 | 49 |  |  |
| QQLLRREVY [Peptide E6-42] |  |  |  |  | binding class for HLA-A11.2 (HLA-A11 (A*1101)): weak affinity |
| QQQMFLGTVK [Peptide 88.0219] | 1460 | 13 |  | > 20000 |  |
| RQLKETELRK [Peptide 9012.0249] | > 20000 |  | > 20000 | 12600 |  |
| RQRKIDWLIK [Peptide 9017.0247] | > 20000 |  | 95 | > 20000 |  |
| RTEVYQFAFK [Peptide 78.0062] | 3310 |  | 1690 | 9180 |  |
| SQIQYWQLIR [Peptide 88.0199] |  | 84 | 219 | 7540 |  |
| TFPHAFPFDK [Peptide 88.0176] | 200 |  | 4960 | > 20000 |  |
| TTYAEPPK [Peptide 1556.11] | 320 |  | > 20000 | > 20000 |  |

| Molecule | IC50 (A*6801) [nM] | IC50 (HLA-A11 (A*1101)) [nM] | IC50 (A31 (A*3101)) [nM] | IC50 (A*3301) [nM] | also measured |
| --- | --- | --- | --- | --- | --- |
| TVTYSPALNK [Peptide 1556.40] | 165 |  | > 20000 | > 20000 |  |
| TVYAEPPR [Peptide 1556.10] | 21 |  | 8410 | 11800 |  |
| VLGTLEEVPTA |  |  |  |  | binding to HLA-A2.1 (column 3; no allele head shown for these rows) (HLA-A*0201 (HLA-A2.1)): 0.0002 |
| VLVTCLGLSYDGL |  |  |  |  | binding to HLA-A2.1 (column 3; no allele head shown for these rows) (HLA-A*0201 (HLA-A2.1)): 0.0017 |
| VMVTCLGLSV |  |  |  |  | binding to HLA-A2.1 (column 3; no allele head shown for these rows) (HLA-A*0201 (HLA-A2.1)): 0.30 |
| VPTAGSTDP |  |  |  |  | A2.1 (HLA-A*0201 (HLA-A2.1)): <0.0002 |
| VQAATSSSS |  |  |  |  | A2.1 (HLA-A*0201 (HLA-A2.1)): <0.0002 |
| VQEKYLEYG |  |  |  |  | A2.1 (HLA-A*0201 (HLA-A2.1)): <0.0002 |
| VQLDIQSTK [Peptide 78.0301] | > 20000 | 216 |  | > 20000 |  |
| VTCLGLSYD |  |  |  |  | A2.1 (HLA-A*0201 (HLA-A2.1)): <0.0002 |
| VTKAEMLESV |  |  |  |  | binding to HLA-A2.1 (column 3; no allele head shown for these rows) (HLA-A*0201 (HLA-A2.1)): 0 |
| VTKAEMLGSV |  |  |  |  | binding to HLA-A2.1 (column 3; no allele head shown for these rows) (HLA-A*0201 (HLA-A2.1)): <0.0002 |
| VVEVVPISHL |  |  |  |  | binding to HLA-A2.1 (column 3; no allele head shown for these rows) (HLA-A*0201 (HLA-A2.1)): <0.0002 |
| WTIVYIEYR [Peptide 9017.0117] | 17 |  |  | 92 |  |
| YIFATCLGL |  |  |  |  | A2.1 (HLA-A*0201 (HLA-A2.1)): 0.018 |
| YKHCFPEIF |  |  |  |  | A2.1 (HLA-A*0201 (HLA-A2.1)): <0.0002 |
| YLCNSSCMGGV [Peptide 1323.31] |  |  |  |  | A*0201 (HLA-A*0201 (HLA-A2.1)): 0.2300 |
| YLEYGRCRT |  |  |  |  | binding to HLA-A2.1 (column 3; no allele head shown for these rows) (HLA-A*0201 (HLA-A2.1)): 0 |
| YLEYGRCRTVI |  |  |  |  | binding to HLA-A2.1 (column 3; no allele head shown for these rows) (HLA-A*0201 (HLA-A2.1)): 0.0006 |
| YLIMVKBWMV [Peptide 1334.05] |  |  |  |  | A*0201 (HLA-A*0201 (HLA-A2.1)): 0.6900 |
| YMCNSSCMGGM [Peptide 1323.29] |  |  |  |  | A*0201 (HLA-A*0201 (HLA-A2.1)): 0.0075 |
| YMIMVKBWMI [Peptide 1334.04] |  |  |  |  | A*0201 (HLA-A*0201 (HLA-A2.1)): 0.2700 |
| YVKVLEYVI |  |  |  |  | binding to HLA-A2.1 (column 3; no allele head shown for these rows) (HLA-A*0201 (HLA-A2.1)): 0.0002 |
